Laboratory results published in PubChem BioAssay AID248 (DTP/NCI, 2004).
Values joined by “and” are separate entries in the source; they are usually repeats but may differ in a detail not shown here. Equal values may be shown once. Toxic doses and inconclusive results are not listed. Rule as the data show it: active = T/C of 150% or more; inactive = T/C below 125%.

Test system: L1210 leukemia ip in BDF1 mice, survival T/C
Experiment: NCI In Vivo Anticancer Drug Screen. Data for tumor model L1210 Leukemia (intraperitoneal) in B6D2F1 (BDF1) mice
Details: endpoint: mean survival time, higher = longer survival
Outline: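 Read-out is survival time, reported as the treated-group measurement over the vehicle-control measurement.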

[1] = dose: 100.0 mg/kg/injection, schedule: Q01DX009 (ip), vehicle: Klucel (hydroxypropylcellulose) (HPC)
[2] = dose: 200.0 mg/kg/injection, schedule: Q01DX009 (ip), vehicle: Klucel (hydroxypropylcellulose) (HPC)
[3] = dose: 400.0 mg/kg/injection, schedule: Q01DX009 (ip), vehicle: Klucel (hydroxypropylcellulose) (HPC)
[4] = dose: 100.0 mg/kg/injection, schedule: Q01DX001 (ip), vehicle: saline with Tween-80
[5] = dose: 100.0 mg/kg/injection, schedule: Q01DX009 (ip), vehicle: saline with Tween-80
[6] = dose: 100.0 mg/kg/injection, schedule: Q04DX003 (ip), vehicle: saline with Tween-80
[7] = dose: 200.0 mg/kg/injection, schedule: Q01DX009 (ip), vehicle: saline with Tween-80
[8] = dose: 200.0 mg/kg/injection, schedule: Q04DX003 (ip), vehicle: saline with Tween-80
[9] = dose: 400.0 mg/kg/injection, schedule: Q01DX009 (ip), vehicle: saline with Tween-80
[10] = dose: 400.0 mg/kg/injection, schedule: Q04DX003 (ip), vehicle: saline with Tween-80
[11] = dose: 100.0 mg/kg/injection, schedule: Q01DX001 (ip), vehicle: saline
[12] = dose: 200.0 mg/kg/injection, schedule: Q01DX001 (ip), vehicle: saline
[13] = dose: 400.0 mg/kg/injection, schedule: Q01DX001 (ip), vehicle: saline
[14] = dose: 100.0 mg/kg/injection, schedule: Q04DX002 (ip), vehicle: gum acacia
[15] = dose: 100.0 mg/kg/injection, schedule: Q04DX002 (ip), vehicle: saline with Tween-80
[16] = dose: 200.0 mg/kg/injection, schedule: Q04DX002 (ip), vehicle: saline with Tween-80
[17] = dose: 400.0 mg/kg/injection, schedule: Q04DX002 (ip), vehicle: saline with Tween-80

Measured: T/C

NC(=O)N/N=C/c1ccccc1
inactive: [1] 96 % of control | dose: 100.0 mg/kg/injection, schedule: Q04DX002 (ip), vehicle: Klucel (hydroxypropylcellulose) (HPC) 89 % of control | [2] 96 % of control | dose: 200.0 mg/kg/injection, schedule: Q04DX002 (ip), vehicle: Klucel (hydroxypropylcellulose) (HPC) 100 % of control | [3] 111 % of control | dose: 400.0 mg/kg/injection, schedule: Q04DX002 (ip), vehicle: Klucel (hydroxypropylcellulose) (HPC) 104 % of control

CCCCNC(=O)Nc1cccc(C(F)(F)F)c1
inactive: dose: 50.0 mg/kg/injection, schedule: Q01DX001 (sc), vehicle: carboxymethylcellulose (CMC) 106 % of control | dose: 100.0 mg/kg/injection, schedule: Q01DX001 (sc), vehicle: carboxymethylcellulose (CMC) 104 % of control | dose: 200.0 mg/kg/injection, schedule: Q01DX001 (sc), vehicle: carboxymethylcellulose (CMC) 104 % of control | dose: 400.0 mg/kg/injection, schedule: Q01DX001 (sc), vehicle: carboxymethylcellulose (CMC) 101 % of control

CCCCCCCCP(=O)(CCCC)CCCCCCCC
inactive: dose: 25.0 mg/kg/injection, schedule: Q01DX001 (ip), vehicle: saline with Tween-80 100 % of control | dose: 50.0 mg/kg/injection, schedule: Q01DX001 (ip), vehicle: saline with Tween-80 101 % of control | [4] 100 % of control and 104 % of control

Cc1cc(N)n(C(N)=O)n1
inactive: [5] 102 % of control | [6] 106 % of control | [7] 110 % of control | [8] 107 % of control | [9] 108 % of control | [10] 109 % of control

Cc1cccc(N=Nc2ccc(O)cc2)c1
inactive: [1] 100 % of control | [2] 97 % of control | [3] 101 % of control

COc1ccc(C2(C)C(C#N)C(=O)NC(=O)C2C#N)cc1 (stereo not drawn)
inactive: [11] 98 % of control | [12] 122 % of control | [13] 104 % of control

Cc1cc(C)c(NC(=S)NC(=O)c2ccccc2)cc1C
inactive: [14] 88 % of control | dose: 200.0 mg/kg/injection, schedule: Q04DX002 (ip), vehicle: gum acacia 100 % of control | dose: 400.0 mg/kg/injection, schedule: Q04DX002 (ip), vehicle: gum acacia 96 % of control

Cc1c(Cl)cccc1Nc1n[nH]c(=S)s1
inactive: dose: 75.0 mg/kg/injection, schedule: Q01DX001 (ip), vehicle: other 98 % of control | dose: 150.0 mg/kg/injection, schedule: Q01DX001 (ip), vehicle: other 98 % of control | dose: 300.0 mg/kg/injection, schedule: Q01DX001 (ip), vehicle: other 93 % of control

OC1C2CCN(CC2)C1CN1CCOCC1 (stereo not drawn)
inactive: [11] 107 % of control | dose: 100.0 mg/kg/injection, schedule: Q01DX009 (ip), vehicle: saline 94 % of control | [12] 108 % of control | dose: 200.0 mg/kg/injection, schedule: Q01DX009 (ip), vehicle: saline 91 % of control | [13] 97 % of control | dose: 400.0 mg/kg/injection, schedule: Q01DX009 (ip), vehicle: saline 91 % of control

COc1cc(C=Nc2ccc(C)c(Cl)c2)ccc1OC(=O)c1ccccc1
inactive: [15] 96 % of control | [16] 93 % of control | [17] 104 % of control

O=C(O)CCCc1ccc2c(c1)-c1ccccc1S2=O (stereo not drawn)
inactive: [6] 106 % of control | [8] 109 % of control | [10] 110 % of control

C(/C=C/c1ccccc1)=Nc1ccc(CCc2ccc(N=C/C=C/c3ccccc3)cc2)cc1
inactive: [6] 91 % of control | [8] 92 % of control | [10] 92 % of control

CC(=O)c1cccc(NC(=O)c2ccc(F)cc2)c1
inactive: [5] 100 % of control | [7] 98 % of control | [9] 88 % of control

CCOC(=O)N(O)c1ccc(/C=C/c2ccccc2)cc1
inactive: dose: 100.0 mg/kg/injection, schedule: Q01DX001 (ip), vehicle: carboxymethylcellulose (CMC) 98 % of control | dose: 200.0 mg/kg/injection, schedule: Q01DX001 (ip), vehicle: carboxymethylcellulose (CMC) 93 % of control | dose: 400.0 mg/kg/injection, schedule: Q01DX001 (ip), vehicle: carboxymethylcellulose (CMC) 98 % of control

CCCCCNS(=O)(=O)CCCC
inactive: dose: 100.0 mg/kg/injection, schedule: Q04DX002 (ip), vehicle: other 111 % of control | dose: 200.0 mg/kg/injection, schedule: Q04DX002 (ip), vehicle: other 96 % of control | dose: 400.0 mg/kg/injection, schedule: Q04DX002 (ip), vehicle: other 103 % of control

COC(=O)c1ccccc1N=NNc1ccc(-c2nc(N)nc(N)n2)cc1
inactive: dose: 100.0 mg/kg/injection, schedule: Q04DX003 (ip), vehicle: Klucel (hydroxypropylcellulose) (HPC) 100 % of control | [2] 100 % of control | dose: 200.0 mg/kg/injection, schedule: Q04DX003 (ip), vehicle: Klucel (hydroxypropylcellulose) (HPC) 94 % of control | [3] 100 % of control | dose: 400.0 mg/kg/injection, schedule: Q04DX003 (ip), vehicle: Klucel (hydroxypropylcellulose) (HPC) 95 % of control

CC/C(=N/N=C(N)N)c1ccc(NC(=O)Nc2ccc(/C(CC)=N/N=C(N)N)cc2)cc1
inactive: dose: 2.5 mg/kg/injection, schedule: Q01DX009 (ip), vehicle: saline 103 % of control | dose: 5.0 mg/kg/injection, schedule: Q01DX009 (ip), vehicle: saline 121 % of control | dose: 10.0 mg/kg/injection, schedule: Q01DX009 (ip), vehicle: saline 107 % of control

C/C(=N/N)c1ccc(Br)cc1
inactive: dose: 3.7 mg/kg/injection, schedule: Q01DX009 (ip), vehicle: saline 107 % of control | dose: 5.0 mg/kg/injection, schedule: Q01DX001 (ip), vehicle: saline 94 % of control | dose: 7.5 mg/kg/injection, schedule: Q01DX009 (ip), vehicle: saline 119 % of control | dose: 10.0 mg/kg/injection, schedule: Q01DX001 (ip), vehicle: saline 97 % of control | dose: 20.0 mg/kg/injection, schedule: Q01DX001 (ip), vehicle: saline 113 % of control | dose: 25.0 mg/kg/injection, schedule: Q04DX003 (ip), vehicle: saline with Tween-80 105 % of control | dose: 40.0 mg/kg/injection, schedule: Q01DX001 (ip), vehicle: saline 122 % of control | dose: 50.0 mg/kg/injection, schedule: Q04DX003 (ip), vehicle: saline with Tween-80 110 % of control | dose: 80.0 mg/kg/injection, schedule: Q01DX001 (ip), vehicle: saline 105 % of control | [6] 93 % of control

O=C(Nc1cccc(C2=NCCN2)c1)c1ccc2cc(C(=O)Nc3cccc(C4=NCCN4)c3)ccc2c1
inactive: dose: 7.5 mg/kg/injection, schedule: Q01DX Z (ip), vehicle: carboxymethylcellulose (CMC) 106 % of control | dose: 15.0 mg/kg/injection, schedule: Q01DX Z (ip), vehicle: carboxymethylcellulose (CMC) 104 % of control and 115 % of control | dose: 30.0 mg/kg/injection, schedule: Q01DX Z (ip), vehicle: carboxymethylcellulose (CMC) 104 % of control and 123 % of control | dose: 60.0 mg/kg/injection, schedule: Q01DX Z (ip), vehicle: carboxymethylcellulose (CMC) 119 % of control | dose: 120.0 mg/kg/injection, schedule: Q01DX Z (ip), vehicle: carboxymethylcellulose (CMC) 120 % of control

O=C(O)c1cccc(F)c1.[Ni]
inactive: dose: 25.0 mg/kg/injection, schedule: Q04DX002 (ip), vehicle: gum acacia 100 % of control | dose: 50.0 mg/kg/injection, schedule: Q04DX002 (ip), vehicle: gum acacia 103 % of control | [14] 117 % of control

COC(=O)c1ccccc1NC(=S)NC(=O)C(C)Oc1ccccc1 (stereo not drawn)
inactive: [4] 111 % of control | [5] 108 % of control and 109 % of control | [15] 96 % of control and 108 % of control | [6] 107 % of control | dose: 200.0 mg/kg/injection, schedule: Q01DX001 (ip), vehicle: saline with Tween-80 95 % of control | [7] 95 % of control and 100 % of control | [16] 98 % of control and 107 % of control | [8] 98 % of control | dose: 400.0 mg/kg/injection, schedule: Q01DX001 (ip), vehicle: saline with Tween-80 98 % of control | [9] 92 % of control | [17] 101 % of control and 104 % of control | [10] 106 % of control
